According to US20170313746A1, “Peptides Useful For Treating Cancer” (priority 2014, published 2017):
“Also recorded” adds a separate entry of the source. Non-standard residues stand in square brackets, D forms with d. Residues, ends and D or L forms follow the SMILES beside them. Phe(4-guanidino) = N=C(N)Nc1ccc(C[C@H](N)C(=O)O)cc1; Abu(4-SO3H) = N[C@@H](CCS(=O)(=O)O)C(=O)O

Columns and labels:
[1] = test system: NCI-H460 human non-small cell lung cancer cells; conditions: cited from earlier work
[2] = test system: NCI-H460 human non-small-cell lung cancer cells; assay: Cell killing alone or in combination with 2-deoxyglucose, alamarBlue; assay type: cell-based; conditions: 3.125 mmol 2-DOG
Method: NCI-H460 human non-small-cell lung cancer cells were contacted with HILR-025 or HILR-D-07 alone or in combination with 3.125 mmol 2-DOG and cell survival was determined using AlamaBlue® cell viability reagent (Life Technologies, Inc.) in accordance with the manufacturer's instructions.

[3] = test system: Lactate Dehydrogenase A [LDHA]; assay: LDH activity assay on lysates of treated NCI-H460 cells; conditions: higher concentrations, particularly later time point
Method: Therefore a BCA assay was conducted to estimate the total amount of protein present in each LDH assay lysate and this was used to normalise the enzyme activity data. As an indication of cell viability, an Alamar blue assay was also carried out at both timepoints, to serve as an additional point of reference.
1) NCI-H460 cells were grown in Ham's F12 media supplemented with 10% FBS. 2) Cells were harvested and seeded into 96-well plates at either 500 cells/well (for the 96 h timepoint) or 5000 cells/well for the 24 h timepoint. […] 6) At the end of the assay (24 or 96 h), Alamar blue 10% (v/v) was added to one set of plates, incubated for a further 4 hours, and fluorescent product detected using the BMG FLUOstar plate reader. […] 10) LDH activity was measured in the cleared lysates using an LDH activity kit (Abeam, ab102526). 11) After preparation of the LDH activity assay reactions, according to the manufacturer's instructions, absorbance at 450 nm was measured at the initial time to determine (A450)initial 12) Further absorbance readings were taken at 3 minute intervals for up to 15 minutes.
14) The change in measurement from Tinitial to Tfinal for each sample was calculated: 11A450=(A450)final−(A450)initial 15) The NADH standard curve was used to interpolate the 11A450 for each sample to determine the amount of NADH generated by the kinase assay between Tinitial and Tfinal (B). […]

[4] = test system: NCI-H460 cells; assay: HILR-001 with or without 30 nM Olaparib, alamarBlue and CellTiter-Glo time course; assay type: cell-based, human
Method: Four concentrations of HILR-001 were tested in the presence or absence of 30 nM Olaparib; At each time point cell viability was measured by two assay readouts, alamarBlue® and CellTiter-Glo. Conversion of alamarBlue® to a fluorescent product serves as a readout of the metabolic activity of cells, whereas CellTiter-Glo is based on quantification of the ATP present.
1) NCI-H460 cells were grown in Ham's F12 media supplemented with 10% FBS. 2) Cells were harvested and seeded into 96-well plates at 500 cells/well. 3) HILR-001 was made up from a 10 mM stock solution and added directly to cells in doubling dilutions starting at 200 μM. Olaparib was made up from a 10 mM stock solution and added directly to cells at 30 nM. The total final DMSO concentration was 0.25%. 4) Cells were grown with compound for 24, 48, 72 or 96 hours at 37° C. 5% CO2 in a humidified atmosphere. 5) AlamarBlue® 10% (v/v) was then added and incubated for a further 4 hours, and fluorescent product detected using the BMG FLUOstar plate reader. 6) On duplicate plates the media was removed from the cells, CellTiter-Glo was diluted in PBS (1:10) and 100 μl added to the cells. 7) Plates were mixed on an orbital shaker for 2 minutes and incubated for a further 10 minutes at room temperature. Luminescent signal was then measured using the BMG FLUOstar plate reader.

[5] = test system: human cancer cell lines; conditions: cited from earlier work
[6] = test system: NCI-H460 cells; assay: NCI-H460 cell viability, alamarBlue (resazurin), 96 hours; assay type: cell-based, human; conditions: FIG. 13
Method: 1) NCI-H460 cells were grown in Ham's F12 media supplemented with 10% FBS. 2) Cells were harvested and seeded into 96-well plates at 500 cells/well. 3) Compounds were made up from stock solutions and added directly to cells in doubling dilutions starting at 200 μM. Final DMSO concentration was 0.2%. 4) Cells were grown with compound for 96 hours at 37° C. 5% CO2 in a humidified atmosphere. 5) A resazurin dye composition (AlamarBlue® cell viability reagent (Life Technologies, Inc.)) 10% (v/v) was then added and incubated for a further 4 hours, and fluorescent product detected using the BMG FLUOstar plate reader. 6) Media only background readings were subtracted before data were analysed using a 4-parameter logistic equation in GraphPad Prism. The IC50 of HILR-30 was determined as 6 μM.
1) NCI-H460 cells were grown in Ham's F12 media supplemented with 10% FBS. 2) Cells were harvested and seeded into 96-well plates at 500 cells/well. 3) Olaparib was made up from stock solutions and added directly to cells in semi-log dilutions starting at 30 μM. Final DMSO concentration was 0.3%. […] 5) AlamarBlue® cell viability reagent (Life Technologies, Inc.) 10% (v/v) was then added and incubated for a further 4 hours, and fluorescent product detected using the BMG FLUOstar plate reader. 6) Data were analysed using a 4-parameter logistic equation in GraphPad Prism.

[7] = 30 nM Olaparib with 50 μM HILR-001

In the case of `CC(C)C[C@@H]1NC(=O)[C@H](C)NC(=O)[C@H](C(C)C)NC(=O)[C@@H]2CCCN2C(=O)[C@H](CCCNC(=N)N)NC(=O)[C@@H]2CCCN2C(=O)CNC(=O)[C@H](CCCNC(=N)N)NC(=O)[C@@H]2CCCN2C(=O)[C@H](CC(C)C)NC(=O)[C@H](C)NC(=O)[C@H](CC(C)C)NC(=O)[C@H](CCCCN)NC(=O)[C@H](CC(C)C)NC(=O)[C@H](C)NC(=O)[C@H](CC(C)C)NC(=O)[C@H](CCCCN)NC1=O` [HILR-001] (HELM PEPTIDE1{P.R.G.P.R.P.V.A.L.K.L.A.L.K.L.A.L}$PEPTIDE1,PEPTIDE1,1:R1-17:R2$$$V2.0), the “killing NCI-H460 human non-small cell lung cancer cells” value [1] is listed as “(“THR54”) ACTIVE”.

In the case of `CC(C)[C@@H]1NC(=O)[C@@H]2CCCN2C(=O)[C@H](CCCNC(=N)N)NC(=O)[C@@H]2CCCN2C(=O)CNC(=O)[C@H](CCCNC(=N)N)NC(=O)[C@@H]2CCCN2C(=O)[C@H](Cc2c[nH]c3ccccc23)NC(=O)[C@H](Cc2c[nH]c3ccccc23)NC(=O)[C@H](CCCNC(=N)N)NC(=O)[C@H](CCCNC(=N)N)NC(=O)[C@H](Cc2c[nH]c3ccccc23)NC(=O)[C@H](Cc2c[nH]c3ccccc23)NC(=O)[C@H](CCCNC(=N)N)NC(=O)[C@H](CCCNC(=N)N)NC(=O)[C@H](Cc2c[nH]c3ccccc23)NC(=O)[C@H](Cc2c[nH]c3ccccc23)NC1=O` [HILR-025] (HELM PEPTIDE1{P.R.G.P.R.P.V.W.W.R.R.W.W.R.R.W.W}$PEPTIDE1,PEPTIDE1,1:R1-17:R2$$$V2.0), the “cell killing ability with co-administration of 2-DOG” value [2] is reported as “enhanced” and the “cell death during LDH study” value [3] is reported as “Significant cell death”.

In the case of `CC(C)[C@@H]1NC(=O)[C@@H]2CCCN2C(=O)[C@H](CCCNC(=N)N)NC(=O)[C@@H]2CCCN2C(=O)CNC(=O)[C@H](CCCNC(=N)N)NC(=O)[C@@H]2CCCN2C(=O)[C@H](Cc2c[nH]c3ccccc23)NC(=O)[C@H](Cc2c[nH]c3ccccc23)NC(=O)[C@H](Cc2ccc(NC(=N)N)cc2)NC(=O)[C@H](Cc2ccc(NC(=N)N)cc2)NC(=O)[C@H](Cc2c[nH]c3ccccc23)NC(=O)[C@H](Cc2c[nH]c3ccccc23)NC(=O)[C@H](Cc2ccc(NC(=N)N)cc2)NC(=O)[C@H](Cc2ccc(NC(=N)N)cc2)NC(=O)[C@H](Cc2c[nH]c3ccccc23)NC(=O)[C@H](Cc2c[nH]c3ccccc23)NC1=O` [HILR-030] (cyclo(PRGPRPVWW[Phe(4-guanidino)][Phe(4-guanidino)]WW[Phe(4-guanidino)][Phe(4-guanidino)]WW)), the “cell death during LDH study” value [3] is reported as “Significant cell death”.

For `O=C(c1cc(Cc2n[nH]c(=O)c3ccccc23)ccc1F)N1CCN(C(=O)C2CC2)CC1` [Olaparib, 4-[3-(4-cyclopropanecarbonylpiperazine-1-carbonyl)-4-fluorobenzyl]-2H-phthalazin-1-one], the “ATP levels (CellTiter-Glo)” value [4, 7] was “partially restored; also recorded: partially reverses”, the “HILR-001-mediated cell death (alamarBlue)” value [4, 7] was “reversed” and the “ATP levels or cancer cell death” value ([4]; 30 nM Olaparib with 100 μM and 200 μM HILR-001) was “did not affect”.

In the case of “Cyc-[AAAGGGPRGPRPGGGAAA] (cyclic; Cyclic peptide; (1)..(18) cyclic peptide) [SEQ ID NO: 6]”, the “activity of PRGPRP cyclic peptides with non-amphiphilic backbone” value (“activity … with non-amphiphilic backbone” below) [5] is listed as “INACTIVE”.

In the case of “Cyc-[AAGPGGPRGPRPGGPGAA] (cyclic; cyclic peptide; (1)..(18) cyclic peptide) [SEQ ID NO: 9]”, the “activity … with non-amphiphilic backbone” value [5] is listed as “INACTIVE”.

In the case of “Cyc-[GGGGGGPRGPRPGGGGGG] (cyclic; cyclic peptide; (1)..(18) cyclic peptide) [SEQ ID NO: 7]”, the “activity … with non-amphiphilic backbone” value [5] is listed as “INACTIVE”.

In the case of “Cyc-[Gly-Asp-Glu-Val-NMeAsp-Sarc-Val-Trp-Trp-Arg-Arg-Trp-Trp-Arg-Arg-Trp-Trp] [HILR-D-01]”, the “cell-killing of NCI-H460 cells” value [6] is reported as “weak but significant dose-related cell-killing; also recorded: mild but significant killing”.

For “Cyc-[PRGPRPVKLALKLALKFP] (cyclic; cyclic peptide; (1)..(18) cyclic peptide) [THR53]”, the “killing NCI-H460 human non-small cell lung cancer cells” value [1] is given as “(“THR5”) ACTIVE”.

For “Cyc-[PRGPRPVKLALKLALKLAL] (cyclic; cyclic peptide; (1)..(19) cyclic peptide) [THR52]”, the “killing NCI-H460 human non-small cell lung cancer cells” value [1] is listed as “(“THR52”) INACTIVE”.

With “cyclo-[Pro-Hca-Gly-Pro-Hca-Pro-Val-Trp-Trp-Gpa-Gpa-Trp-Trp-Gpa-Gpa-Trp-Trp] (cyclo(P[Abu(4-SO3H)]GP[Abu(4-SO3H)]PVWW[Phe(4-guanidino)][Phe(4-guanidino)]WW[Phe(4-guanidino)][Phe(4-guanidino)]WW)) [HILR-D-07]” the “cell killing ability with co-administration of 2-DOG” value [2] was “enhanced”.
